According to patent US6762200B2, “Oxa(thia)zolidine derivative and anti-inflammatory drug” (Nippon Soda Co. Ltd., priority 2000, dated 2004):
Like-named read-outs stand apart in the source and are kept apart here.

Assays:
[1] = target: T1, IV-cPLA(2) (Homo sapiens, UniProt P47712); assay: PLA(2) activity, hydrolysis of bis-BODIPY FL C11-PC in activated U937 cells; format: cell-based
T1 sequence (P47712 1-749): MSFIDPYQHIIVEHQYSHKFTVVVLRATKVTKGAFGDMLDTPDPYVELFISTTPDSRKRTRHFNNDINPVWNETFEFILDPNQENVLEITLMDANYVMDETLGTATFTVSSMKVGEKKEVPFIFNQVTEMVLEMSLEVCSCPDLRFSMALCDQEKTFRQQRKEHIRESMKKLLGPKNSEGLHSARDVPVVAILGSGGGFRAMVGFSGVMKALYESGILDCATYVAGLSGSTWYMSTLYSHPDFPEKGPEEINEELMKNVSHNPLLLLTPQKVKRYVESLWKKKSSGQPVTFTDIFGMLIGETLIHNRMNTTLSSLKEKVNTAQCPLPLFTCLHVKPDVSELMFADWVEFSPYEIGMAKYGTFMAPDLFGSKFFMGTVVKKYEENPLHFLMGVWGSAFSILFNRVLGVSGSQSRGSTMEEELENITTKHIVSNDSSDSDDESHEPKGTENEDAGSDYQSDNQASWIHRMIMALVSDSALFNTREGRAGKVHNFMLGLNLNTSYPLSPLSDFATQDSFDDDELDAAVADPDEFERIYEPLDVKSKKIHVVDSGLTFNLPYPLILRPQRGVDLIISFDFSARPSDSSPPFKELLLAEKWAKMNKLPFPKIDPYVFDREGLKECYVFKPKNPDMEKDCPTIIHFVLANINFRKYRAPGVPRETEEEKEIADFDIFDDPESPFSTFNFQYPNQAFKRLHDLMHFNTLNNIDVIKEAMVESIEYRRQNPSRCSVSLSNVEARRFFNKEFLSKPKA
Procedure: The PLA(2) activity was measured by quantitatively analyzing the fluorescent product of hydrolysis from 1,2-bis-(4,4-difluoro-5,7-dimethyl-4-bora-3a,4a-diaza-s-indecene-3-undecanoyl)-sn-glycero-3-phosphocholine (hereinafter referred to bis-BODIPY®FL C11—PC, Molecular Probes, Inc., B-7701) using activated U937 cells (human monoblastic lymphoma cell line) by inflammatory stimulus (Meshulam, T. et al., The journal of Biological Chemistry 267 (30): 21465-21470 (1992); and Solito, E. et al., British Journal of Pharmacology 124: 1675-1683 (1998).). The substrate bis-BODIPY®FL C11—PC is incorporated into cellular membranes, the proximity of the BODIPY FL fluorophores on adjacent phospholipid acyl chains causes fluorescence self-quenching. Separation of the fluorophores upon hydrolytic cleavage of one of the acyl chains by PLA(1) or the PLA(2) results in increased fluorescence. In the activated U937 by inflammatory stimulus, it is shown that this substrate should be cleaved enzymatically by IV-cPLA(2) from the feature of its behaviors including sensitivity profiles against the inhibitors.
The human cell line U937 was purchased from Dai-Nippon Pharmaceuticals Co., Ltd. The cells were maintained by transferring every 3-4 days into RPMI 1640 medium (Sigma Chemical Co., R6504) supplemented with heat-inactivated 10% fetal bovine serum (Fetal Bovine Serum, Sigma Chemical Co., F 4135) in a 5% CO2 humidified atmosphere at 37° C. The cells were transferred into the culture medium described above, containing 1.2% (v/v) dimethylsulfoxide (hereinafter referred to as […], Nacalai tesque Co., Ltd., D 134-45), and pre-cultured for 96 to 120 hours so as to differentiate into the macrophage-like cells to be provided for the assay. The macrophage-like cells were collected and washed by centrifugation with the Assay medium (Dulbecco's phosphate buffered saline (hereinafter referred to as PBS)-2.2 mM glucose-2.5 μm albumin). Then, Phorbol 12-Myristate 13-Acetate (hereinafter referred to as TPA, Sigma Chemical Co., P 8139) was added to the Assay medium to be 1×10^−8M as the final concentration. Then, the macrophage-like cells were further cultured for an hour to be activated (Rzigalinski, B. A. & Rosenthal, M. D., Biochimica et Biophysica Acta 1223: 219-225 (1994); and Gonchar, M. V. et al., Biochemical and Biophysical Research Communication, 249: 829-832 (1998).).
For preparing substrate liposome suspension, bis-BODIPY®FL C11—PC was combined with phosphatidylcholine (Sigma Chemical Co., P 7769) at 1:9 molar ratio in chloroform, and dried under nitrogen flow. The dried mixture was suspended with the Assay medium at 100 μg/mL, voltexed and sonicated for an hour on ice under dark condition.
The test compound was dissolved with DMSO at 30 mM, and the solution diluted with either DMSO or the Assay medium before addition into the reaction mixture. The DMSO concentration in the reaction mixture was controlled so as to be no more than 0.1%. The 30-fold concentration of test compound solution was put into each well of MICRPTEST™ Tissue Culture Plate, 96 Well (Falcon, 3072) at a rate of 2.5 μL/well. To the respective well was added 25 μL/well of the activated U937 cell suspension ([…]), and the cells were pre-cultured for 120 min. at 37° C. in a 5% CO2 atmosphere incubator. 47.5 μL/well of the substrate liposome suspension with 1.5×10^−6M A23187 (Sigma Chemical Co., C 7522) was added into each well to prepare 75 μL/well of the total reaction mixture, followed by culture for 30 min. under the same conditions with shielding against light. 100 μL/well of 0.1% GEDTA (Dojindo Laboratories Co. Ltd., 348-01311) methanol solution was added into each well and mixed to stop the reaction. […]

[2] = tested on: TPA-induced ear edema; format: in vivo, ICR-strain male mouse; settings: topical, 6 hours after TPA
Procedure: This test was carried out referring to the method of Carlson, R. P. et al. (Agents and Actions, 17(2): 197-204 (1985).) and the method of Chang, J. (European Journal of Pharmacology, 142: 197-205 (1987).). […] 6 hours later, the thickness of each ear at the particular part was respectively measured three times using a digimatic micrometer to calculate the mean value. Ear edema was determined by subtracting the mean thickness of the left ear as without treatment from that of the right ear as TPA-applied. […] As the positive control, 100 mg/kg of Hydrocortisone (Sigma Chemical Co., H 4001) suspension was applied to the mouse similarly as for the compound of the present invention.

Compound | Inhibition (%) ([1]; 0.1 μM) | also measured
CCNC(=O)N1C(=NNc2ccccc2)SC(c2ccc(Cl)cc2)C1C (centres unmarked) [Compound 1-77] | – | Inhibition (%) ([1]; 1 μM): 100%
CC1C(c2ccc(Cl)cc2)SC(=O)N1C(=O)NC(=O)c1ccccc1 (centres unmarked) [Compound 2-38] | – | Inhibition (%) ([1]; 1 μM): 87%
CN=C1OC(c2ccc(C)cc2)C(C)N1C(=O)Nc1ccc(Cl)cc1 (centres unmarked) [Compound 1-25] | 100 | –
CC1C(c2ccc(-c3ccccc3)cc2)OC(=O)N1C(=S)NC1CCCCC1 (centres unmarked) [Compound 2-75] | 83 | –
Cc1ccc(C2OC(=NC(=O)c3c(C)cccc3Cl)NC2C)cc1 (centres unmarked) [Compound 1-73] | 68 | Ear Edema Inhibition (%) ([2]; 1 mg/40 μL/ear × 2): 86%
CC1C(c2cccc3ccccc23)OC(=O)N1C(=O)NC1CCCCO1 (centres unmarked) [Compound 2-113] | – | Inhibition (%) ([1]; 1 μM): 72%
CC(=O)N=C1SC(c2ccccc2)C(C)N1CC(OC(C)=O)c1ccccc1 (centres unmarked) [Compound 1-42] | 94 | –
CC1C(c2ccc(Cl)cc2)SC(=O)N1C(=O)NN(C)C (centres unmarked) [Compound 2-22] | 100 | –
Cc1ccc(C2OC(=O)N(C(=O)NCCCl)C2C)cc1 (centres unmarked) [Compound 2-48] | 77 | –
CC1C(c2ccc3ccccc3c2)OC(=O)N1C(=O)NC1CCCCO1 (centres unmarked) [Compound 2-115] | 63 | –
CC1NC(=N[N+](=O)[O-])SC1c1ccc(Cl)cc1 (centres unmarked) [Compound 1-11] | 88 | –
CC1C(c2ccc(Cl)cc2)SC(=O)N1C(=O)Nc1ccncc1 (centres unmarked) [Compound 2-21] | – | Inhibition (%) ([1]; 1 μM): 100%
CCOC(=O)CN=C1NC(C)C(c2ccc(C)cc2)S1 (centres unmarked) [Compound 1-35] | 57 | –
CC1C(c2ccc(Cl)cc2)SC(=NC#N)N1Cc1ccc(Cl)nc1 (centres unmarked) [Compound 1-5] | 66 | –
CC1C(c2ccc(Cl)cc2)SC(=O)N1C(=O)NS(=O)(=O)c1ccccc1Cl (centres unmarked) [Compound 2-36] | 61 | Ear Edema Inhibition (%) ([2]; 0.3 mg/20 μL/ear × 2): 41%
O=C(NC1CCCCO1)N1CC(c2ccc(-c3ccccc3)cc2)OC1=O (centres unmarked) [Compound 2-78] | – | Inhibition (%) ([1]; 0.01 μM): 100%
CC1C(c2cnc3ccccc3c2)OC(=O)N1C(=O)NC1CCCCO1 (centres unmarked) [Compound 2-151] | – | Inhibition (%) ([1]; 0.01 μM): 64%
CC(=O)OCC(=O)[C@@]1(O)[C@H](C)C[C@H]2[C@@H]3CCC4=CC(=O)C=C[C@]4(C)[C@@]3(F)[C@@H](O)C[C@@]21C [DEX-Ac, Dexamathasone-21-acetate, reference compound] | – | Ear Edema Inhibition (%) ([2]; 0.3 mg/20 μL/ear × 2): 49%; Ear Edema Inhibition (%) ([2]; 1 mg/20 μL/ear × 2): 80%
Cc1ccc(C2OC(=O)N(C(=O)NN3CCN(C)CC3)C2C)cc1 (centres unmarked) [Compound 2-161] | – | Inhibition (%) ([1]; 1 μM): 65%
Cc1ccc(C2SC(=NC(=S)NC3CCCCC3)NC2C)cc1 (centres unmarked) [Compound 1-112] | – | Inhibition (%) ([1]; 1 μM): 72%; Ear Edema Inhibition (%) ([2]; 1 mg/40 μL/ear × 2): 69%
C=CC(=O)N=C1SC(c2ccc(C)cc2)C(C)N1C(=O)NC1CCCCC1 (centres unmarked) [Compound 1-49] | 91 | –
C[C@@H]1[C@@H](c2ccc(Cl)cc2)SC(=O)N1C(=O)NC1CCCCO1 (single isomer, unassigned) [Compound 2-246] | – | Inhibition (%) ([1]; 0.01 μM): 78%; Ear Edema Inhibition (%) ([2]; 1 mg/40 μL/ear × 2): 74%
Cc1ccc(C2OC(=O)N(C(=O)NC(=O)c3c(F)cccc3F)C2C)cc1 (centres unmarked) [Compound 2-79] | 55 | –
CC1C(c2ccc(Cl)cc2)SC(=O)N1C(=S)NCCN1CCOCC1 (centres unmarked) [Compound 2-37] | 63 | –
COC1CCCC(NC(=O)N2C(=O)OC(c3ccc4ccccc4c3)C2C)O1 (centres unmarked) [Compound 2-133] | – | Inhibition (%) ([1]; 1 μM): 75%
Cc1ccc(N2C(=NC(=O)NC3CCCCC3)SC(c3ccc(Cl)cc3)C2C)cc1 (centres unmarked) [Compound 1-90] | – | Ear Edema Inhibition (%) ([2]; 1 mg/20 μL/ear × 2): 41%
COS(=O)(=O)NC(=O)N1C(=O)OC(c2ccc(C)cc2)C1C (centres unmarked) [Compound 2-56] | 92 | –
CC1C(c2ccc(Cl)cc2)SC(=O)N1C(=O)NC1CCCCO1 (centres unmarked) [Compound 2-201] | – | Inhibition (%) ([1]; 1 μM): 94%

Further lines, with some results ahead:

Inhibition (%) ([1]; 0.1 μM) | Compound | also measured
95 | CC1C(c2ccccc2)OC(=O)N1C(=O)NC1CCCCO1 (centres unmarked) [Compound 2-155] | –
88 | Cc1ccc(C2OC(=O)N(C(=O)NC3CCCCO3)C2C)cc1C (centres unmarked) [Compound 2-156] | Ear Edema Inhibition (%) ([2]; 1 mg/20 μL/ear × 2): 48%
82 | CC1C(c2ccc(Cc3ccccc3)cc2)OC(=O)N1C(=O)NC1CCCCO1 (centres unmarked) [Compound 2-117] | –
74 | CC1C(c2ccc(-c3ccccc3)cc2)OC(=O)N1C(=O)Nc1ccc(Cl)cc1 (centres unmarked) [Compound 2-187] | –
72 | CC1C(c2cccnc2)SC(=O)N1C(=O)NC1CCCCC1 (centres unmarked) [Compound 2-145] | –
54 | CCONC(=O)N1C(=O)OC(c2ccc(Oc3ccccc3)cc2)C1C (centres unmarked) [Compound 2-116] | –
96 | Cc1ccc(C2OC(=O)N(C(=O)NC3CCSCC3)C2C)cc1 (centres unmarked) [Compound 2-157] | –
62 | CC1C(c2ccc3c(c2)CCCC3)OC(=O)N1C(=O)NC1CCCCO1 (centres unmarked) [Compound 2-125] | Ear Edema Inhibition (%) ([2]; 1 mg/40 μL/ear × 2): 62%
85 | CC1C(c2ccccn2)OC(=O)N1C(=O)Nc1ccc(Cl)cc1 (centres unmarked) [Compound 2-146] | Ear Edema Inhibition (%) ([2]; 1 mg/40 μL/ear × 2): 80%
82 | Cc1ccc(C2OC(=O)N(C(=O)NC3CCCCO3)C2C)cc1 (centres unmarked) [Compound 2-170] | Ear Edema Inhibition (%) ([2]; 0.3 mg/20 μL/ear × 2): 57%
75 | CC1C(c2ccc(-c3ccccc3)cc2)OC(=O)N1C(=O)Nc1ccc(Cl)cc1 (centres unmarked) [Compound 2-186] | –
72 | CCN(C(C)C)S(=O)(=O)NC(=O)N1C(=O)OC(c2ccc3ccccc3c2)C1C (centres unmarked) [Compound 2-126] | –
91 | Cc1ccc(C2OC(=O)N(C(=S)NC3CCCCC3)C2C)cc1C (centres unmarked) [Compound 2-182] | –
68 | O=C(NC1CCCCO1)N1CC(c2ccc3ccccc3c2)OC1=O (centres unmarked) [Compound 2-130] | –
100 | CC1C(c2ccccc2)OC(=O)N1C(=S)NC1CCCCC1 (centres unmarked) [Compound 2-180] | –
95 | Cc1ccc(C2OC(=O)N(C(=O)NC3CCOCC3)C2C)cc1 (centres unmarked) [Compound 2-159] | –
